From patent US10344060B2 (priority 2013, dated 2019)
“And” between values parts separate entries of the source, which are not always exact repeats. Identical values can stand only once.

How the values were obtained:
hNav1.4 = hNav1.4 (Homo sapiens, UniProt P35499); experiment: cell-based; assay type: cell-based; settings: ratio of PX tonic IC50 values
hNav1.7 = hNav1.7 (Homo sapiens, UniProt Q15858); experiment: cell-based; assay type: cell-based; settings: for IC50: Table 12, PatchXpress, tonic block, read-out: PX hNav1.7 Tonic IC50; for Nav1.4/Nav1.7 / Nav1.5/Nav1.7: ratio of PX tonic IC50 values, Table 11
hNav1.7, sequence (Q15858 whole entry): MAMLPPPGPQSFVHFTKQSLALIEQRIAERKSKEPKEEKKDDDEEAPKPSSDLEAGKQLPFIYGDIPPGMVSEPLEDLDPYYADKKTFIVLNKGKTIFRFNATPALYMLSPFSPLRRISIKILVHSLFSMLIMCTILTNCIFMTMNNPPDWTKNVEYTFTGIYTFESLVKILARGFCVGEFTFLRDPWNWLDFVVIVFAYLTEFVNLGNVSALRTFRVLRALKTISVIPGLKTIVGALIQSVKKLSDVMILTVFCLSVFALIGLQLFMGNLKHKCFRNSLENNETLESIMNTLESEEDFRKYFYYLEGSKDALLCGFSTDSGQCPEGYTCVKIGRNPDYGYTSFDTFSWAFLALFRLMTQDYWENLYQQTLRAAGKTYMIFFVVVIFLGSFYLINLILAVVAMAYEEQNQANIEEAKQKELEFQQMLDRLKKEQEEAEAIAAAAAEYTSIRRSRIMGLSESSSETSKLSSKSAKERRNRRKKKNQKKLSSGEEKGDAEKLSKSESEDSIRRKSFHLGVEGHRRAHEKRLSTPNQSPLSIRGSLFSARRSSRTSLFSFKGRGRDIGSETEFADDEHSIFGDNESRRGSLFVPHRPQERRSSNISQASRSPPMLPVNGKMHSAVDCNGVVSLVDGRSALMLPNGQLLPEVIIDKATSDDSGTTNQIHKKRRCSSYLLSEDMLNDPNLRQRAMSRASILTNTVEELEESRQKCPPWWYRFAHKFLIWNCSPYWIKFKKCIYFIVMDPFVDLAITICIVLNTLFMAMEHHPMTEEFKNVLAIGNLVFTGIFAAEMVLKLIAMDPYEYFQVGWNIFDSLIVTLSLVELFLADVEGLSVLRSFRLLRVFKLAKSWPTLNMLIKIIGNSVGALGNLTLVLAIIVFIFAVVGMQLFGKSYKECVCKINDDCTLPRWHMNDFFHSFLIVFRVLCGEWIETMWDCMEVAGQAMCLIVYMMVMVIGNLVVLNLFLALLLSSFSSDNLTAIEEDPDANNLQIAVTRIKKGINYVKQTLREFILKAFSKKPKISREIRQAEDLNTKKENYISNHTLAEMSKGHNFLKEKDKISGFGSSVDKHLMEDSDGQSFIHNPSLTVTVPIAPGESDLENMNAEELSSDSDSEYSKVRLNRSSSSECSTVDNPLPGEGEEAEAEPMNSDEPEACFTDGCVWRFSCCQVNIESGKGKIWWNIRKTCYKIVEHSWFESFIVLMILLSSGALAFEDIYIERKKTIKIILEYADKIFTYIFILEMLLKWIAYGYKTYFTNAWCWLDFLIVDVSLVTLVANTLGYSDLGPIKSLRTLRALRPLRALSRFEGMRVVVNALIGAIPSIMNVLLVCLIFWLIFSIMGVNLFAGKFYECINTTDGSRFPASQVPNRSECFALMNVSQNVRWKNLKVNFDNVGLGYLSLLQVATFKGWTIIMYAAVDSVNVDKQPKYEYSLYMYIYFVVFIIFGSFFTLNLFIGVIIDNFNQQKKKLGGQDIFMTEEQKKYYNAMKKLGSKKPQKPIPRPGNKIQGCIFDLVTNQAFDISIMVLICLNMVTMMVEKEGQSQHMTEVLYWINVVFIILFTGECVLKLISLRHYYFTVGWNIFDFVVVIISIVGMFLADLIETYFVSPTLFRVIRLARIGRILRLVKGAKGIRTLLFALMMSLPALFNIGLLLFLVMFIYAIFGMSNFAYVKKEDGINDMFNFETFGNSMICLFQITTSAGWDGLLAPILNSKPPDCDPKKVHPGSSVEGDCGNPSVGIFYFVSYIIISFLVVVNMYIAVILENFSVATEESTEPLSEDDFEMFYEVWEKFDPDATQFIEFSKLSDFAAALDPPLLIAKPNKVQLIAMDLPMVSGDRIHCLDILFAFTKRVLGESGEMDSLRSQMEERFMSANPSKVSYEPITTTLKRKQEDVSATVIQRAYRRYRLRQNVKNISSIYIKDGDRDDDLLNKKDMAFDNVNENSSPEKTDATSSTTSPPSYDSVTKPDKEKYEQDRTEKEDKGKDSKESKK

hNav1.4, sequence (P35499 whole entry): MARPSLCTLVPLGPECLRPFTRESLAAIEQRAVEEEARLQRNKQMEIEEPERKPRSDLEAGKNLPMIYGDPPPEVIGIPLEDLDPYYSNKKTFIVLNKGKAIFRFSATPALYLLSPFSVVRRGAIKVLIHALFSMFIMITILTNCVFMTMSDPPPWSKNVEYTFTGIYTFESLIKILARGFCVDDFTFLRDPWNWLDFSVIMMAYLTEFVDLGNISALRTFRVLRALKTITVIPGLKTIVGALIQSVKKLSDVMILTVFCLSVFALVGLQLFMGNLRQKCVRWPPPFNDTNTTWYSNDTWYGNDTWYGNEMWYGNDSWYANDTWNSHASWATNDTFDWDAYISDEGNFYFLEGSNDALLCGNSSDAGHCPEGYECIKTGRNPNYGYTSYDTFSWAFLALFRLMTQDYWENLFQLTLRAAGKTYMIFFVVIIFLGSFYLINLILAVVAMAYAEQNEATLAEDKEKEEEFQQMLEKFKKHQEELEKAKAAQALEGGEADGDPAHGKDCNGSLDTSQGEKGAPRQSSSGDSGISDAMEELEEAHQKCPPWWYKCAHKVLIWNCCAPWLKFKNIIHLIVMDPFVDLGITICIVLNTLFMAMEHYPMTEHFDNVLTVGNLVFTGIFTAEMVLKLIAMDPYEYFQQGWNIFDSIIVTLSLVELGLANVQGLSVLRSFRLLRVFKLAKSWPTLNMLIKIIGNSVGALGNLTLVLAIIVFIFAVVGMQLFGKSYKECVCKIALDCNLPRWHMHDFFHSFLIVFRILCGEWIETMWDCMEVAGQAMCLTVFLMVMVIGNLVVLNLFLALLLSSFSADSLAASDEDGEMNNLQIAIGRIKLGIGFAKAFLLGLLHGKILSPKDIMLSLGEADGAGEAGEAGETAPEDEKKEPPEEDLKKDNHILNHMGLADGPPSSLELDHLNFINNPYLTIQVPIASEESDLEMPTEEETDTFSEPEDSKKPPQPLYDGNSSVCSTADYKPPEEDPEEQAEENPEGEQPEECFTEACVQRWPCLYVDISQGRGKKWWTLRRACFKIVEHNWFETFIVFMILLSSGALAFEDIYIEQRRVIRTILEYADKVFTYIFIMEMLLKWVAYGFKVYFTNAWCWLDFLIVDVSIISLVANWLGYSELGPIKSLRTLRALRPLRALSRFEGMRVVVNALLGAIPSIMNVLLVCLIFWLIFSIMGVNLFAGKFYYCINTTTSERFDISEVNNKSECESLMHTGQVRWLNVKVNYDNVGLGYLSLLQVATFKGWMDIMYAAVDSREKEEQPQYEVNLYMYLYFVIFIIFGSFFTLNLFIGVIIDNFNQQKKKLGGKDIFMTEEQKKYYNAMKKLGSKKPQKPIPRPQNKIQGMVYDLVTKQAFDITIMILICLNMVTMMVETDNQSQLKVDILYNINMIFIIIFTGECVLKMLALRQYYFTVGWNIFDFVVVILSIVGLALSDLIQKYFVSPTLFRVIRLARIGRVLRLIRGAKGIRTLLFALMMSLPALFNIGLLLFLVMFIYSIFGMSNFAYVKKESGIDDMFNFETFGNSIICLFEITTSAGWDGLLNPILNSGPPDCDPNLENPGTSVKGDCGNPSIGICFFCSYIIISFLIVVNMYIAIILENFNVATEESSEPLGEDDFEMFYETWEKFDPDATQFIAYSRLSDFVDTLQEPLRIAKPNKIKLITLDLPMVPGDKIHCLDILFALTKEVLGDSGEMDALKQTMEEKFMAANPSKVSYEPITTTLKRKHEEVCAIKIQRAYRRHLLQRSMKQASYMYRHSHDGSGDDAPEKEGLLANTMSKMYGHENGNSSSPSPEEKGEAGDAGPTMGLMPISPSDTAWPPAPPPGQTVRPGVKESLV

## CCCC[C@@H]1NC(=O)[C@H](Cc2c[nH]c3ccccc23)NC(=O)[C@H](CCCCN)NC(=O)[C@H](CCC(N)=O)NC(=O)[C@@H](NC(=O)[C@H](Cc2ccc(O)cc2)NC(=O)[C@@H](N)Cc2cn(CCOCCOCCOCCOCCOCCOCCOCCOCCOCCOCCOCCOCCOCCOCCOCCOCCOCCOCCOCCOCCOCCOCCOCCNC(=O)c3cc(CNC(=O)CSCc4ccccc4)cc(C(=O)NCCOCCOCCOCCOCCOCCOCCOCCOCCOCCOCCOCCOCCOCCOCCOCCOCCOCCOCCOCCOCCOCCOCCOCCn4cc(C[C@H](N)C(=O)N[C@@H](Cc5ccc(O)cc5)C(=O)N[C@H]5CSSC[C@@H]6NC(=O)[C@@H]7CSSC[C@@H](C(=O)N[C@@H](CCCNC(=N)N)C(=O)N[C@@H](CCCCN)C(=O)N[C@H](C(=O)N[C@H](C(N)=O)[C@@H](C)CC)[C@@H](C)CC)NC(=O)[C@H](Cc8c[nH]c9ccccc89)NC(=O)[C@H](CC(C)C)NC(=O)[C@H](CCCCN)NC(=O)[C@H](CSSC[C@H](NC(=O)[C@H]([C@@H](C)O)NC(=O)[C@H](Cc8c[nH]c9ccccc89)NC(=O)[C@H](CCCC)NC(=O)[C@H](Cc8c[nH]c9ccccc89)NC(=O)[C@H](CCCCN)NC(=O)[C@H](CCC(N)=O)NC5=O)C(=O)N[C@@H](CC(=O)O)C(=O)N[C@@H](CO)C(=O)N[C@@H](CCCCN)C(=O)N[C@@H](CCCNC(=N)N)C(=O)N[C@@H](C)C(=O)N7)NC(=O)[C@H](CCCNC(=N)N)NC(=O)[C@H](CC(C)C)NC(=O)CNC(=O)[C@H](CCC(=O)O)NC6=O)nn4)c3)nn2)CSSC[C@@H]2NC(=O)[C@@H]3CSSC[C@@H](C(=O)N[C@@H](CCCNC(=N)N)C(=O)N[C@@H](CCCCN)C(=O)N[C@H](C(=O)N[C@H](C(N)=O)[C@@H](C)CC)[C@@H](C)CC)NC(=O)[C@H](Cc4c[nH]c5ccccc45)NC(=O)[C@H](CC(C)C)NC(=O)[C@H](CCCCN)NC(=O)[C@H](CSSC[C@H](NC(=O)[C@H]([C@@H](C)O)NC(=O)[C@H](Cc4c[nH]c5ccccc45)NC1=O)C(=O)N[C@@H](CC(=O)O)C(=O)N[C@@H](CO)C(=O)N[C@@H](CCCCN)C(=O)N[C@@H](CCCNC(=N)N)C(=O)N[C@@H](C)C(=O)N3)NC(=O)[C@H](CCCNC(=N)N)NC(=O)[C@H](CC(C)C)NC(=O)CNC(=O)[C@H](CCC(=O)O)NC2=O [Homodimeric Conjugate No. 2, Bis-{Atz(PEG23*)-[Nle6]JzTx-V(1-29)}-5-((2-(benzylthio)acetamido)methyl)isophthalamide]
hNav1.4; Table 13
  Nav1.4/Nav1.7: 5 and 3

## C#CC[C@H](N)C(=O)NCCCC[C@@H]1NC(=O)[C@H](CCCNC(=N)N)NC(=O)[C@H](CCCCN)NC(=O)[C@H](CO)NC(=O)[C@H](CC(=O)O)NC(=O)[C@@H]2CSSC[C@@H]3NC(=O)[C@H](CCCNC(=N)N)NC(=O)[C@H](CC(C)C)NC(=O)CNC(=O)[C@H](CCC(=O)O)NC(=O)[C@H](CSSC[C@H](NC(=O)[C@H](Cc4ccc(O)cc4)NC(=O)[C@@H](N)CCC)C(=O)N[C@@H](CCC(N)=O)C(=O)N[C@@H](CCCCN)C(=O)N[C@@H](Cc4c[nH]c5ccccc45)C(=O)N[C@@H](CCCC)C(=O)N[C@@H](Cc4c[nH]c5ccccc45)C(=O)N[C@@H]([C@@H](C)O)C(=O)N2)NC(=O)[C@H](CSSC[C@@H](C(=O)N[C@@H](CCCNC(=N)N)C(=O)N[C@@H](CCCCN)C(=O)N[C@@H](CCC(=O)O)C(=O)N[C@H](C(N)=O)[C@@H](C)CC)NC(=O)[C@H](Cc2c[nH]c4ccccc24)NC(=O)[C@H](CC(C)C)NC(=O)[C@H](CCCCN)NC3=O)NC1=O [compound 435]
hNav1.4; Table 12
  Nav1.4/Nav1.7: 99

## C#CC[C@H](N)C(=O)N[C@@H](Cc1ccc(O)cc1)C(=O)N[C@H]1CSSC[C@@H]2NC(=O)[C@@H]3CSSC[C@@H](C(=O)N[C@@H](CCCNC(=N)N)C(=O)N[C@@H](CCCCN)C(=O)N[C@@H](CCCC)C(=O)N[C@H](C(N)=O)[C@@H](C)CC)NC(=O)[C@H](Cc4c[nH]c5ccccc45)NC(=O)[C@H](CC(C)C)NC(=O)[C@H](CCCCN)NC(=O)[C@H](CSSC[C@H](NC(=O)[C@H]([C@@H](C)O)NC(=O)[C@H](Cc4c[nH]c5ccccc45)NC(=O)[C@H](CCCC)NC(=O)[C@H](Cc4c[nH]c5ccccc45)NC(=O)[C@H](CCCCN)NC(=O)[C@H](CCC(N)=O)NC1=O)C(=O)N[C@@H](CC(=O)O)C(=O)N[C@@H](CO)C(=O)N[C@@H](CCCCN)C(=O)N[C@@H](CCCNC(=N)N)C(=O)N[C@@H](C)C(=O)N3)NC(=O)[C@H](CCCNC(=N)N)NC(=O)[C@H](CC(C)C)NC(=O)CNC(=O)[C@H](CCC(=O)O)NC2=O [compound 664]
hNav1.7
  IC50: 0.339 nM

## C#CC[C@H](N)C(=O)N[C@@H](Cc1ccc(O)cc1)C(=O)N[C@H]1CSSC[C@@H]2NC(=O)[C@@H]3CSSC[C@@H](C(=O)N[C@@H](CCCNC(=N)N)C(=O)N[C@@H](CCCCN)C(=O)N[C@@H](CCC(=O)O)C(=O)N[C@H](C(N)=O)[C@@H](C)CC)NC(=O)[C@H](Cc4c[nH]c5ccccc45)NC(=O)[C@H](CC(C)C)NC(=O)[C@H](CCCCN)NC(=O)[C@H](CSSC[C@H](NC(=O)[C@H]([C@@H](C)O)NC(=O)[C@H](Cc4cccc5ccccc45)NC(=O)[C@H](CCCC)NC(=O)[C@H](Cc4c[nH]c5ccccc45)NC(=O)[C@H](CCCCN)NC(=O)[C@H](CCC(N)=O)NC1=O)C(=O)N[C@@H](CC(=O)O)C(=O)N[C@@H](CO)C(=O)N[C@@H](CCCCN)C(=O)N[C@@H](CCCNC(=N)N)C(=O)N[C@@H](C)C(=O)N3)NC(=O)[C@H](CCCNC(=N)N)NC(=O)[C@H](CC(C)C)NC(=O)CNC(=O)[C@H](CCC(=O)O)NC2=O [compound 846]
hNav1.7
  IC50: 825 nM

## CCCC[C@@H]1NC(=O)[C@H](Cc2c[nH]c3ccccc23)NC(=O)[C@H](CCCCN)NC(=O)[C@H](CCC(N)=O)NC(=O)[C@@H](NC(=O)[C@H](Cc2ccc(O)cc2)NC(=O)[C@@H](N)CC(C)C)CSSC[C@@H]2NC(=O)[C@@H]3CSSC[C@@H](C(=O)N[C@@H](CCCNC(=N)N)C(=O)N[C@@H](CCCCN)C(=O)N[C@@H](CCC(=O)O)C(=O)N[C@H](C(N)=O)[C@@H](C)CC)NC(=O)[C@H](Cc4c[nH]c5ccccc45)NC(=O)[C@H](CC(C)C)NC(=O)[C@H](CCCCN)NC(=O)[C@H](CSSC[C@H](NC(=O)[C@H]([C@@H](C)O)NC(=O)[C@H](Cc4c[nH]c5ccccc45)NC1=O)C(=O)N[C@@H](CC(=O)O)C(=O)N[C@@H](CO)C(=O)N[C@@H](CCCCN)C(=O)N[C@@H](CCCNC(=N)N)C(=O)N[C@@H](C)C(=O)N3)NC(=O)[C@H](CCCNC(=N)N)NC(=O)[C@H](CC(C)C)NC(=O)CNC(=O)[C@H](CCCCNC(=O)CCOCCOCCOCCOCCOCCOCCOCCOCCOCCOCCOCCOCCN)NC2=O [compound 462]
hNav1.7
  Nav1.4/Nav1.7: 20

## C#CC[C@@H]1NC(=O)[C@@H]2CSSC[C@H](NC(=O)[C@H](Cc3ccc(O)cc3)NC(=O)[C@@H](N)CC#N)C(=O)N[C@@H](CCC(N)=O)C(=O)N[C@@H](CCCCN)C(=O)N[C@@H](Cc3c[nH]c4ccccc34)C(=O)N[C@@H](CCCC)C(=O)N[C@@H](Cc3c[nH]c4ccccc34)C(=O)N[C@@H]([C@@H](C)O)C(=O)N[C@H]3CSSC[C@H](NC(=O)[C@H](CCCNC(=N)N)NC(=O)[C@H](CC(C)C)NC(=O)CNC1=O)C(=O)N[C@@H](CCCCN)C(=O)N[C@@H](CC(C)C)C(=O)N[C@@H](Cc1c[nH]c4cc(C)ccc14)C(=O)N[C@H](C(=O)N[C@@H](CCCNC(=N)N)C(=O)N[C@@H](CCCCN)C(=O)N[C@@H](CCC(=O)O)C(=O)N[C@H](C(N)=O)[C@@H](C)CC)CSSC[C@H](NC(=O)[C@H](C)NC(=O)[C@H](CCCNC(=N)N)NC(=O)[C@H](CCCCN)NC(=O)[C@H](CO)NC(=O)[C@H](CC(=O)O)NC3=O)C(=O)N2 [compound 874]
hNav1.7
  IC50: 14 nM

## CCCC[C@@H]1NC(=O)[C@H](Cc2c[nH]c3ccccc23)NC(=O)[C@H](CCCCN)NC(=O)[C@H](CCC(N)=O)NC(=O)[C@@H](NC(=O)[C@H](Cc2ccc(O)cc2)NC(=O)[C@@H](N)CCC)CSSC[C@@H]2NC(=O)[C@@H]3CSSC[C@@H](C(=O)N[C@@H](CCCNC(=N)N)C(=O)N[C@@H](CCCCN)C(=O)N[C@H](C(=O)N[C@H](C(N)=O)[C@@H](C)CC)[C@@H](C)CC)NC(=O)[C@H](Cc4c[nH]c5ccccc45)NC(=O)[C@H](CC(C)C)NC(=O)[C@H](CCCCN)NC(=O)[C@H](CSSC[C@H](NC(=O)[C@H]([C@@H](C)O)NC(=O)[C@H](Cc4c[nH]c5ccccc45)NC1=O)C(=O)N[C@@H](CC(=O)O)C(=O)N[C@@H](CO)C(=O)N[C@@H](CCCCN)C(=O)N[C@@H](CCCNC(=N)N)C(=O)N[C@@H](C)C(=O)N3)NC(=O)[C@H](CCCNC(=N)N)NC(=O)[C@H](CC(C)C)NC(=O)CNC(=O)[C@H](CCC(=O)O)NC2=O [compound 369]
hNav1.7
  Nav1.4/Nav1.7: 552
  Nav1.5/Nav1.7: 23418

## C#CC[C@@H]1NC(=O)[C@@H]2CSSC[C@H](NC(=O)[C@H](CCC(=O)O)NC(=O)[C@@H](N)CC#N)C(=O)N[C@@H](CCC(N)=O)C(=O)N[C@@H](CCCCN)C(=O)N[C@@H](Cc3c[nH]c4ccccc34)C(=O)N[C@@H](CCCC)C(=O)N[C@@H](Cc3c[nH]c4ccccc34)C(=O)N[C@@H]([C@@H](C)O)C(=O)N[C@H]3CSSC[C@H](NC(=O)[C@H](CCCNC(=N)N)NC(=O)[C@H](CC(C)C)NC(=O)CNC1=O)C(=O)N[C@@H](CCCCN)C(=O)N[C@@H](CC(C)C)C(=O)N[C@@H](Cc1c[nH]c4ccccc14)C(=O)N[C@H](C(=O)N[C@@H](CCCNC(=N)N)C(=O)N[C@@H](CCCCN)C(=O)N[C@@H](CCC(=O)O)C(=O)N[C@H](C(N)=O)[C@@H](C)CC)CSSC[C@H](NC(=O)[C@H](CCC(=O)O)NC(=O)[C@H](CCCNC(=N)N)NC(=O)[C@H](CCC(=O)O)NC(=O)[C@H](CO)NC(=O)[C@H](CC(=O)O)NC3=O)C(=O)N2 [compound 756]
hNav1.7
  IC50: > 1000 nM

## CCCC[C@@H]1NC(=O)[C@H](Cc2c[nH]c3ccccc23)NC(=O)[C@H](CCCCN)NC(=O)[C@H](CCC(N)=O)NC(=O)[C@@H](NC(=O)[C@H](Cc2ccc(O)cc2)NC(=O)[C@@H](N)CCCC)CSSC[C@@H]2NC(=O)[C@@H]3CSSC[C@@H](C(=O)N[C@@H](CCCNC(=N)N)C(=O)N[C@@H](CCCCN)C(=O)N[C@H](C(=O)N[C@H](C(N)=O)[C@@H](C)CC)[C@@H](C)CC)NC(=O)[C@H](Cc4c[nH]c5ccccc45)NC(=O)[C@H](CC(C)C)NC(=O)[C@H](CCCCN)NC(=O)[C@H](CSSC[C@H](NC(=O)[C@H]([C@@H](C)O)NC(=O)[C@H](Cc4c[nH]c5ccccc45)NC1=O)C(=O)N[C@@H](CC(=O)O)C(=O)N[C@@H](CO)C(=O)N[C@@H](CCCCN)C(=O)N[C@@H](CCCNC(=N)N)C(=O)N[C@@H](C)C(=O)N3)NC(=O)[C@H](CCCNC(=N)N)NC(=O)[C@H](CC(C)C)NC(=O)CNC(=O)[C@H](CCC(=O)O)NC2=O [compound 370]
hNav1.7
  Nav1.4/Nav1.7: 21
  Nav1.5/Nav1.7: 3729
